In brackets after ≈: the same amount, converted by molar mass.
Tests used:
B16 = assay: In vitro evaluation for cytotoxicity against B16 melanoma.; assay type: functional, cell-based; conditions: Mus musculus
L1210 = assay: In vitro evaluation for cytotoxicity against L1210 cell line; assay type: functional, cell-based; conditions: Mus musculus
P388 = assay: In vitro evaluation for cytotoxicity against P388 murine leukemia cell line; assay type: functional, cell-based, Mus musculus
[1] = Mus musculus, P388, read-out: IC50

Row | Structure (SMILES) | IC50 (B16) [ng/mL] | IC50 (L1210) [ng/mL] | IC50 (P388; p388) [ng/mL] | IC50 (P388; [1]) [ng/mL]
1 | COC(=O)[C@]1(C)N=C2C(=O)C=C3N(C(=O)c4cc5cc(OC)c(OC)c(OC)c5[nH]4)C[C@H]4C[C@@]34C2=C1O | 0.2 (≈ 0.394 nM) | 0.1 (≈ 0.197 nM) | 0.002 (≈ 0.00394 nM) | –
2 | COC(=O)[C@]1(C)N=C2C(=O)C=C3N(C(=O)c4cc5cc(OC)c(OC)c(OC)c5[nH]4)C[C@@H]4C[C@]34C2=C1O | > 3 | > 12 | – | ≥ 0.3
3 | COC(=O)[C@@]1(C)N=C2C(=O)C=C3N(C(=O)c4cc5cc(OC)c(OC)c(OC)c5[nH]4)C[C@H]4C[C@@]34C2=C1O | 0.8 (≈ 1.58 nM) | 0.8 (≈ 1.58 nM) | – | 0.007 (≈ 0.0138 nM)
4 | COC(=O)[C@@]1(C)N=C2C(=O)C=C3N(C(=O)c4cc5cc(OC)c(OC)c(OC)c5[nH]4)C[C@@H]4C[C@]34C2=C1O | > 3 | > 11 | – | ≥ 0.3

From ChEMBL document CHEMBL1126438, “DNA alkylation properties of the duocarmycins: (+)-duocarmycin A, epi-(+)-duocarmycin A, ent-()-duocarmycin A and epi,ent-()-duocarmycin A” (Bioorg Med Chem Lett, 1992)
